Measurements published in paper PMC10051454, “Synthesis of Schiff Bases Containing Phenol Rings and Investigation of Their Antioxidant Capacity, Anticholinesterase, Butyrylcholinesterase, and Carbonic Anhydrase Inhibition Properties” (Pharmaceutics, 2023).
Where “and” joins values, the source holds several entries; their conditions need not be identical. Equal entries are not always repeated. Where two headings read alike, the source gives them in different places.

How the values were obtained:
[1] = Cu2+ reducing ability (neocuproine method, absorbance 450 nm); conditions: 30 µg/mL; absorbance at 450 nm
Protocol: The Cu^2+ reducing ability of Schiff bases (10–15) and hydrazineylidene derivatives (16 and 17) were detected according to a prior study. For this purpose, 0.25 mL of CuCl2 solution (10 mM), 0.25 mL of ethanolic neocuproine solution (7.5 × 10^−3 M), and 250 μL of NH4Ac buffer solution (1.0 M) in different concentrations (10–30 μg/mL) were transferred to test tubes containing Schiff base (10–15) and hydrazineylidene derivative (16 and 17) samples. The total volume was made up to 2 mL with distilled water, and their absorbance values were recorded at 450 nm after 30 min of incubation.

[2] = DPPH radical scavenging (Blois method); conditions: half maximal scavenging concentration
Protocol: DPPH· and ABTS^•+ scavenging methods are the most widely used spectrophotometric methods to determine the antioxidant capacity of newly synthesized compounds. The DPPH‧ scavenging effect of Schiff bases (10–15) and hydrazineylidene derivatives (16 and 17) was realized according to the Blois method. Briefly, 1 mL of DPPH^• solution (0.1 mM), which was prepared in ethanol and was a violet/purple color […], was added to the Schiff base (10–15) and hydrazineylidene derivative (16 and 17) samples at different concentrations (10–30 μg/mL). Then, they were incubated at room temperature for 30 min and their absorbance values were recorded at 517 nm.

[3] = molecular target: T1, hCA I (Homo sapiens, UniProt P00915); test: biochemical
Text: (§2) Both isoforms’ activity was spectrophotometrically determined according to the Verpoorte assay [47]. […] All experiments of the CA inhibition assay were repeated three times and the results are given as the arithmetic mean of these repetitions.

[4] = molecular target: hCA II (Homo sapiens, UniProt P00918); test: hCA II inhibition, esterase assay (Verpoorte); format: biochemical
Text: as §2

[5] = molecular target: BChE (Homo sapiens, UniProt P06276); test: biochemical
Protocol: (§1) Acetylthiocholine iodide/butyrylthiocholine iodide (AChI)/BChI) and 5,5′-dithiobis(2-nitro-benzoic acid) (DTNB) were used as the substrate pattern for both cholinergic reactions. […] Then, the samples were incubated at 25 °C for 15 min, and 50 μL of DTNB solution (0.5 mM,) was transferred.

[6] = molecular target: AChE (Homo sapiens, UniProt P22303); test: biochemical
Protocol: as §1

[7] = ABTS radical cation scavenging
Protocol: The ABTS radical cation scavenging assay was used as a way to calculate antioxidant capacity based on this radical scavenging ability. Firstly, an aqueous solution of ABTS (7.0 mM) was oxidized by oxidants such as K2S2O8 (2.5 mM) for the production of its radical cation (ABTS^•+). […] Then, 1 mL of ABTS^•+ solution was added to 3 mL Schiff base (10–15) and hydrazineylidene derivative (16 and 17) solutions at different concentrations (10–30 μg/mL).

[8] = Fe3+-TPTZ complex reducing ability (absorbance 593 nm); conditions: 30 µg/mL; absorbance at 593 nm
Protocol: The Fe^3+-TPTZ complex reducing ability of Schiff bases (10–15) and hydrazineylidene derivatives (16 and 17) was realized according to a previous study. For this, 2.25 mL of TPTZ solution (10 mM in 40 mM HCl) was freshly prepared, then added to 2.5 mL of acetate buffer (0.3 M, pH 3.6) and 2.25 mL of FeCl3 solution (20 mM). Then, different concentrations of Schiff bases (10–15) and hydrazineylidene derivatives (16 and 17) were transferred and incubated at 37 °C for 30 min. Finally, the absorbance values of the reducing power of Schiff bases (10–15) and hydrazineylidene derivatives (16 and 17) and standards were spectrophotometrically measured at 593 nm.

[9] = molecular target: T1, hCA I
Text: as §2

[10] = Fe3+ reducing ability (ferricyanide method, absorbance 700 nm); conditions: 30 µg/mL; absorbance at 700 nm
Protocol: The Fe^3+ reducing ability of Schiff bases (10–15) and hydrazineylidene derivatives (16 and 17) were tested according to our prior studies. For this purpose, various concentrations of compounds (10–17) were transferred into test tubes, and 2.5 mL of phosphate buffer (0.2 M, pH 6.6) and 2.5 mL (1%) of potassium ferricyanide [K3Fe(CN)6] solutions were added. Then, the mixture was vortexed and incubated at 50 °C for 20 min. A portion of trichloroacetic acid (2.5 mL, 10%) was added. Then, 2.5 mL of upper layers of the solutions were mixed with 2.5 mL distilled water and 0.5 mL FeCl3 (0.1%). The absorbance values of the reducing effects of compounds (10–17) and standards were spectrophotometrically recorded at 700 nm.

BChE, sequence (P06276 29-602): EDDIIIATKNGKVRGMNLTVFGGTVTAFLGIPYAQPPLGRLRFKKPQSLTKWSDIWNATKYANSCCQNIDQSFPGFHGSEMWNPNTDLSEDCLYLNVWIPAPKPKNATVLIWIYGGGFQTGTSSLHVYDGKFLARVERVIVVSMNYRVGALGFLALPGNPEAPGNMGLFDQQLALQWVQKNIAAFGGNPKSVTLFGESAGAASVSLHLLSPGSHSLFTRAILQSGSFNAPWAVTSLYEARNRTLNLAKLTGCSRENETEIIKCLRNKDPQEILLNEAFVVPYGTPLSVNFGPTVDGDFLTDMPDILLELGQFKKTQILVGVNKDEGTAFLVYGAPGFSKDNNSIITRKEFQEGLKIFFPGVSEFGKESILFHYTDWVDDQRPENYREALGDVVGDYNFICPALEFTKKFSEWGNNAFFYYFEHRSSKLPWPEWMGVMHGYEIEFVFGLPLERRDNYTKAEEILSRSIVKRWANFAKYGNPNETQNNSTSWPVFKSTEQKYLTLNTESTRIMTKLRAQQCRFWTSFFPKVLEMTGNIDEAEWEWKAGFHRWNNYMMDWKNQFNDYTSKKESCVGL
AChE, sequence (P22303 32-614): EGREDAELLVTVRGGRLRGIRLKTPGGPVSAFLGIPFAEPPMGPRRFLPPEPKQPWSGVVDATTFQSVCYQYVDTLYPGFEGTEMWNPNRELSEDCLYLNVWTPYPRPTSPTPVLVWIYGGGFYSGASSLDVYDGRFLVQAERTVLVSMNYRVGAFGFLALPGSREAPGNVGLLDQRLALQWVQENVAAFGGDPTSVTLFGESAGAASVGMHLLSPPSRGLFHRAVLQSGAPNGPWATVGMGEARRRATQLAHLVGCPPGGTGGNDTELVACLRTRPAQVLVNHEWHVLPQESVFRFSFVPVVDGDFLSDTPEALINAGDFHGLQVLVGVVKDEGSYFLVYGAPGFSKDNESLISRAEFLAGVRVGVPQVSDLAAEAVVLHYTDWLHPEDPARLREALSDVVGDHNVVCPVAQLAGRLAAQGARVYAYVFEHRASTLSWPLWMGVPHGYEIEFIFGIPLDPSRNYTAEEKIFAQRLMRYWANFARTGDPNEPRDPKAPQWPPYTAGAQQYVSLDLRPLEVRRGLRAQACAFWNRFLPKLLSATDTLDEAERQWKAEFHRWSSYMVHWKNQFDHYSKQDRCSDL
T1 sequence (P00915 whole entry): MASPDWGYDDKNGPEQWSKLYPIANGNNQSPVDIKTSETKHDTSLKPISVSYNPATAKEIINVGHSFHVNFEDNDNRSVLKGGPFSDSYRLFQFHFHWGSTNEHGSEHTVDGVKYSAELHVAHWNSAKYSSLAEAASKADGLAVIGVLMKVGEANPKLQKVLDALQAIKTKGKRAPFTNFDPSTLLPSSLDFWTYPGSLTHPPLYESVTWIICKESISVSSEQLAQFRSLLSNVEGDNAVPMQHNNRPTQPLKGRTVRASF

Row | SMILES | Cu^2+ Reducing λ450 [1] [absorbance] | DPPH^• Scavenging IC50 [2] | IC50 [3] [nM] | IC50 ([4]; read-out: IC50 hCA II) [nM] | IC50 ([5]; read-out: IC50 BChE) [nM] | Selectivity Index (AChE/BChE) [6] | IC50 ([6]; read-out: IC50 AChE) [nM] | ABTS^•+ Scavenging IC50 [7] | Fe^3+-TPTZ Reducing λ593 [8] [absorbance] | Selectivity Index (hCA I/hCA II) [9] | Fe^3+ Reducing λ700 [10] [absorbance] | Ki [3] [nM] | Ki [4] [nM] | IC50 [4] [nM] | IC50 [5] [nM] | IC50 [6] [nM]
1 | COc1ccc(/C=N/N=C(c2ccccc2)c2ccccc2)cc1O [Compound 16, (E)-5-(((Diphenylmethylene)hydrazineylidene)methyl)-2-methoxyphenol] | 1.266 ± 0.029 | 30.13 µg/mL | 69.3 | 112 | 25.7 | 0.627 | 16.1 | 11.745 µg/mL and 11.74 µg/mL | 1.069 ± 0.057 | 0.326 | 0.311 ± 0.018 | – | – | – | – | –
2 | NN=C(c1ccccc1)c1ccccc1 [Compound 8, benzophenone hydrazone] | 1.005 ± 0.009 | – | – | – | – | – | – | – | – | – | – | – | – | – | – | –
3 | COc1ccc(/C=N/Cc2ccccc2)cc1O [Compound 15, (E)-5-((Benzylimino)methyl)-2-methoxyphenol] | 0.803 ± 0.013 | 99.01 µg/mL | 99 | 139 | 36.5 | 0.704 | 25.7 | 23.896 µg/mL and 23.89 µg/mL | 0.646 ± 0.034 | 0.521 | 0.363 ± 0.021 | – | – | – | – | –
4 | COc1ccc(/C=N/c2ccc(N(C)C)cc2)cc1O [Compound 10, (E)-5-(((4-(Dimethylamino)phenyl)imino)methyl)-2-methoxyphenol] | 2.176 ± 0.044 | 16.902 µg/mL and 16.90 µg/mL | 66 | 131 | 23.9 | 1.115 | 26.7 | 14.437 µg/mL and 14.43 µg/mL | 2.076 ± 0.004 | 0.372 | 2.827 ± 0.016 | – | – | – | – | –
5 | COc1ccc(/C=N/c2ccc(N)cc2)cc1O [Compound 14, (E/Z)-5-(((4-Aminophenyl)imino)methyl)-2-methoxyphenol] | 1.970 ± 0.018 | 13.86 µg/mL | 53.3 | 69.3 | 38.5 | 0.900 | 34.6 | 5.33 µg/mL | 2.074 ± 0.017 | 0.306 | 2.741 ± 0.026 | 26.1 ± 8.53 | – | – | – | –
6 | COc1ccc(/C=N/c2ccccc2O)cc1O [Compound 11, (E)-5-(((2-Hydroxyphenyl)imino)methyl)-2-methoxyphenol] | 2.332 ± 0.018 | 12.157 µg/mL and 12.15 µg/mL | 86.6 | 88.2 | 34.6 | 0.645 | 22.4 | 4.386 µg/mL and 4.38 µg/mL | 2.183 ± 0.016 | 0.730 | 2.591 ± 0.010 | – | – | – | – | –
7 | COc1ccc(/C=N/c2ccc(Br)cc2)cc1O [Compound 13, (E)-5-(((4-Bromophenyl)imino)methyl)-2-methoxyphenol] | 0.875 ± 0.020 | 87.721 µg/mL and 87.72 µg/mL | 63 | 77 | 28.9 | 0.615 | 17.8 | 34.65 µg/mL | 0.701 ± 0.003 | 0.483 | 0.198 ± 0.004 | – | 67.6 ± 15.7 | – | – | –
8 | COc1ccc(/C=N/Nc2ccccc2)cc1O [Compound 17, (E)-2-Methoxy-5-((2-phenylhydrazineylidene)methyl)phenol] | 2.026 ± 0.016 | 14.744 µg/mL and 14.74 µg/mL | 96.2 | 116 | 19.8 | 1.206 | 23.9 | 4.304 µg/mL and 4.30 µg/mL | 2.121 ± 0.014 | 0.247 | 2.391 ± 0.037 | – | – | – | – | –
9 | COc1ccc(C=O)cc1O [Compound 1, Isovanillin] | 1.005 ± 0.009 | 86.62 µg/mL | 139 | – | – | 1.083 | – | 12.15 µg/mL | 0.728 ± 0.020 | – | 0.244 ± 0.005 | 112 ± 25.8 | – | 173 | 53.3 | 57.8
10 | Cc1c(C)c2c(c(C)c1O)CCC(C)(C(=O)O)O2 (centres unmarked) [Trolox, trolox, reference compound] | 1.174 ± 0.027 | 12.157 µg/mL and 12.15 µg/mL | – | – | – | – | – | 4.846 µg/mL and 4.84 µg/mL | 2.051 ± 0.028 | – | 1.570 ± 0.016 | – | – | – | – | –
11 | Cc1c(C)c2c(c(C)c1O)CC[C@@](C)(CCC[C@H](C)CCC[C@H](C)CCCC(C)C)O2 [α-Tocopherol, α-tocopherol, reference compound] | 1.923 ± 0.032 | 10.043 µg/mL and 10.04 µg/mL | – | – | – | – | – | 9.493 µg/mL and 9.49 µg/mL | 1.763 ± 0.026 | – | 1.446 ± 0.009 | – | – | – | – | –
12 | Cc1cc(C(C)(C)C)c(O)c(C(C)(C)C)c1 [BHT, butylated hydroxytoluene, reference compound] | 2.149 ± 0.019 | 13.326 µg/mL and 13.32 µg/mL | – | – | – | – | – | 4.95 µg/mL | 2.037 ± 0.027 | – | 1.994 ± 0.033 | – | – | – | – | –
13 | COc1ccc(/C=N/c2ccc(F)cc2)cc1O [Compound 12, (E)-5-(((4-Fluorophenyl)imino)methyl)-2-methoxyphenol] | 0.951 ± 0.010 | 57.75 µg/mL | 61.9 | 99 | 33 | 0.700 | 23.1 | 27.72 µg/mL | 0.806 ± 0.003 | 0.424 | 0.294 ± 0.008 | – | – | – | – | –
14 | COc1ccc(O)c(C(C)(C)C)c1 [BHA, butylated hydroxyanisole, reference compound] | 2.268 ± 0.011 | 11.55 µg/mL | – | – | – | – | – | 4.47 µg/mL | 2.156 ± 0.005 | – | 2.448 ± 0.021 | – | – | – | – | –
